From PMC10666548, “Identification of the bacterial metabolite aerugine as potential trigger of human dopaminergic neurodegeneration” (Environment international, 2023)
Entries after “also recorded” stand apart in the source; their conditions may differ.

Columns and labels:
[1] = test system: C. elegans strains BY200 and Punc-25; experiment: C. elegans lethality analysis (eight day survival test); assay type: in vivo, Caenorhabditis elegans; settings: L4 larval stage, 8, 40 and 100 μM, up to 8 days
Protocol: The strain BY200 Pdat-1::gfp (vtIs1), dat-1::GFP(vtls1) was kindly provided by the Blakely laboratory, Vanderbilt University Medical Center and the strain Punc-25:GFP was obtained from the Caenorhabditis Genetics Center (CGC, University of Minnesota, Minneapolis, MN, USA). The worms were maintained in nematode growth medium (NGM) plates that contain: 3 g/l NaCl, 17 g/l agar, 2.5 g/l peptone, 1 mM CaCl2, 5 mg/l cholesterol, 1 mM MgSO4, 25 mM potassium phosphate buffer (pH 6.0) with 1.25 ml nystatin and 50 mg/l streptomycin sulfate) and Escherichia coli (E. coli) OP50 strain was used as food ([Brenner, 1974]). Synchronization of worms was carried out using extraction solution (0.2% NaOCl, 0.5 M NaOH, in distilled water). The first larval stage (L1) population were obtained by isolating eggs with a 30% sucrose gradient, washed with sterile water, and resuspended in M9 buffer (42 mM Na2HPO4, 22 mM KH2PO4, 8.5 mM NaCl, and 1 mM MgSO4) ([Sulston and Hodgkin, 1998]).
For the lethality analysis, 40 to 60 BY200 and P unc-25 worms at L4 larval stage were exposed to vehicle or aerugine (8, 40 and 100 μM) in OP50-seeded NGM plates from day 0 until day 8. […] Moreover, worms were transferred to fresh plates for the first three days of treatment, which coincide with the egg laying days to avoid mixing of different generations. […]

d3 LUHMES cells = experiment: Aerugine toxicity in glucose vs galactose medium; assay type: cell-based, human
Protocol: Ückert et al. (2023): Identification of the bacterial metabolite aerugine as potential trigger of human dopaminergic […]
A The effect of aerugine on respiratory function was analysed in d3 LUHMES cells. The oxygen consumption rate of the individual technical replicates is shown. The oxygen consumption rate is normalised to the last measurement before injection. The injections of aerugine, control and the subsequent assay tool compounds are indicated (FCCP: 1.5 µM; oligomycin: 1 µM; rotenone + antimycin A: 0.5 µM +0.5 µM). B Several parameters were derived from the oxygen consumption rate. The data is presented as means ± SD of four replicates (obtained from one cell batch). Statistical analysis was performed using a one-way ANOVA with Dunnett‘s multiple comparisons test. * = p < 0.0001. C Delp et al. (2019) determined the dependence of LUHMES cells on glycolysis and their mitochondria for ATP production in two different media conditions. […]
mitochondrial metabolism in producing ATP in the two different media. D Aerugine toxicity was assessed in d3 LUHMES cells cultured in glucose and in galactose medium. Cell viability was assessed by calcein-AM & H-33342 staining and automated fluorescence microscopy. Double positive cells were counted as viable, H-33342 mono-positive cells were counted as dead.

With `OCC1CSC(c2ccccc2O)=N1` (centres unmarked) [aerugine, 2-[4-(hydroxymethyl)-4,5-dihydro-1,3-thiazol-2-yl]phenol] the “general survival of worms” value [1] was “neither triggered death during the first 2 days; also recorded: not affected” and the “toxicity in galactose vs glucose medium” value (d3 LUHMES cells) was “no increased aerugine toxicity was observed”.
